Measurements: ChEMBL document CHEMBL1909046, “DrugMatrix in vitro pharmacology data”

Tests used:
[1] = DRUGMATRIX: Sodium/nucleoside co-transporter radioligand binding (ligand: nitrobenzylthioinosine); assay type: cell membranes, Cavia porcellus, Dunkin-Hartley, Cerebral cortex, Membrane; conditions: Not Active = under 50% inhibition at 10 µM
[2] = biological target: T1, Alpha-1A adrenergic receptor (Rattus norvegicus, UniProt P43140); experiment: DRUGMATRIX: Alpha-1A adrenergic receptor radioligand binding (ligand: prazosin); assay type: cell membranes, Wistar, Submaxillary gland, Membrane; conditions: Not Active = under 50% inhibition at 10 µM
T1 sequence (P43140 whole entry): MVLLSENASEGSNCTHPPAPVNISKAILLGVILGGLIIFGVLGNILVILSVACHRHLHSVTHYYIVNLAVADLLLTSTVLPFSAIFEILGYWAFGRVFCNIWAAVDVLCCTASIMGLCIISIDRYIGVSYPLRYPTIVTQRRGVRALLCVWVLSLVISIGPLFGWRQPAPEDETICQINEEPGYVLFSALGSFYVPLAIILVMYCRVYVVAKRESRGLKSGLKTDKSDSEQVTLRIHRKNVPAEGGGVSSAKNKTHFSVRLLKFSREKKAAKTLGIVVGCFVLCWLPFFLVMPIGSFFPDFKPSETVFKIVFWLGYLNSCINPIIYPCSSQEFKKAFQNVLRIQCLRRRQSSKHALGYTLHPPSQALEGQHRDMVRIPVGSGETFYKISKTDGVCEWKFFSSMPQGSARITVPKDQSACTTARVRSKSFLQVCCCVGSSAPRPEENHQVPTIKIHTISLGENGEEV

[3] = biological target: C-C chemokine receptor type 2 (Homo sapiens, UniProt P41597); assay type: cell membranes, Membrane; conditions: cho-k1; also: in other assays of this panel Not Active means under 50% inhibition at 10 µM
Sequence of C-C chemokine receptor type 2 (P41597 whole entry): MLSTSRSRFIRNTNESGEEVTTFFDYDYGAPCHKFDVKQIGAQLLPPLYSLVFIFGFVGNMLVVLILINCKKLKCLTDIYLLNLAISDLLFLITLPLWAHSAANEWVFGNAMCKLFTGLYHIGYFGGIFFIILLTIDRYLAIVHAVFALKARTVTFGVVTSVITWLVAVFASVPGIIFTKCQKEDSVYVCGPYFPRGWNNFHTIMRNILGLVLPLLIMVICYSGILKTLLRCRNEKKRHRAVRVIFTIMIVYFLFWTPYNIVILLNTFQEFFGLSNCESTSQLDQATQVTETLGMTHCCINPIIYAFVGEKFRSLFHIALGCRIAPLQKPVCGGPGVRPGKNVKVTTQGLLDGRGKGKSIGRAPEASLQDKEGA

[4] = biological target: Histamine H2 receptor (Homo sapiens, UniProt P25021); assay type: cell membranes, CHO-K1, Membrane; conditions: cho-k1; also: in other assays of this panel Not Active means under 50% inhibition at 10 µM
Sequence of Histamine H2 receptor (P25021 whole entry): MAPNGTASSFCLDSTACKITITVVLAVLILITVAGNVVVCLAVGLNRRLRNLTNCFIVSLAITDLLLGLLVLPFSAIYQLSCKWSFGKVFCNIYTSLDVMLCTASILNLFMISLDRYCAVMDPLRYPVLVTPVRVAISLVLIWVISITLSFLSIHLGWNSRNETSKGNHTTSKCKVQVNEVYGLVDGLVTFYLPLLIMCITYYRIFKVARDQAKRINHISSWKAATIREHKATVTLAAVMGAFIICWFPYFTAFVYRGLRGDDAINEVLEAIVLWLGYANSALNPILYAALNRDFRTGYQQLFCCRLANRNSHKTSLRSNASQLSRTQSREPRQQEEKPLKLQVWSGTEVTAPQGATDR

[5] = DRUGMATRIX: Potassium Channel [KATP] radioligand binding (ligand: [3H] Glyburide); assay type: cell membranes, Membrane; conditions: hit-t15; Not Active = under 50% inhibition at 10 µM
[6] = biological target: 5-hydroxytryptamine receptor 1B (Rattus norvegicus, UniProt P28564); assay type: cell membranes, Wistar, Cerebral cortex, Membrane; also: in other assays of this panel Not Active means under 50% inhibition at 10 µM
Sequence of 5-hydroxytryptamine receptor 1B (P28564 whole entry): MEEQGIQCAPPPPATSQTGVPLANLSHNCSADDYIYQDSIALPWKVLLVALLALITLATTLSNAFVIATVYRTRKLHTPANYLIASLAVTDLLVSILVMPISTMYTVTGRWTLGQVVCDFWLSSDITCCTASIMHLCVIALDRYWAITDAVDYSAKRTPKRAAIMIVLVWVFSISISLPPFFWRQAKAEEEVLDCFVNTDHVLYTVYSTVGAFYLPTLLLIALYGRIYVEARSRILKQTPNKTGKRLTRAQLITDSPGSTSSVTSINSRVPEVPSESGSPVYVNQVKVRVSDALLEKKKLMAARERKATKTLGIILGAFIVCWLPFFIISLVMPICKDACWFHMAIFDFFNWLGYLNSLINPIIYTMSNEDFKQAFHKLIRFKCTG

[7] = biological target: T2, Cytochrome P450 1A2 (Homo sapiens, UniProt P05177); conditions: bti-tn-5b1-4; also: in other assays of this panel Not Active means under 50% inhibition at 10 µM
T2 sequence (P05177 whole entry): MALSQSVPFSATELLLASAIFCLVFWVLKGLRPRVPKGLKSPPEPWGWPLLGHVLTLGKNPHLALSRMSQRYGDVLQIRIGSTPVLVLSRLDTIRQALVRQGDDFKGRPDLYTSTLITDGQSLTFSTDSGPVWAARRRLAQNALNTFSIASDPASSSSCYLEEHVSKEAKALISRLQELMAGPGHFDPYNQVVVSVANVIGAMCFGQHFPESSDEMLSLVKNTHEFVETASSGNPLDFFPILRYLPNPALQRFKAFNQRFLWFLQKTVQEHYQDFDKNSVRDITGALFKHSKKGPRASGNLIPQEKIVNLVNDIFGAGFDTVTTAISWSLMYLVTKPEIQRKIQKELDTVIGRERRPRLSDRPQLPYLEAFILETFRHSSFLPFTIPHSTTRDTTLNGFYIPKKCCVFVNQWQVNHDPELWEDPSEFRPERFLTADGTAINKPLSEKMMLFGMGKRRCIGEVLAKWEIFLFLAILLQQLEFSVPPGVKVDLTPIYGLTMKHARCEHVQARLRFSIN

| Molecule | IC50 [1] | Ki [1] | IC50 [2] | IC50 [3] | IC50 [4] | IC50 [5] | Ki [5] | IC50 [6] | IC50 [7] | Ki [7] | IC50 ([2]; read-out: IC50) [µM] | Ki ([2]; read-out: Ki) [µM] | Ki [2] | Ki [3] | Ki [4] | Ki [6] |
| --- | --- | --- | --- | --- | --- | --- | --- | --- | --- | --- | --- | --- | --- | --- | --- | --- |
| C[C@]12C=CC(=O)C=C1CC[C@@H]1[C@@H]2[C@@H](O)C[C@@]2(C)[C@H]1CC[C@]2(O)C(=O)CO [PREDNISOLONE] | Not Active | Not Active | Not Active | Not Active | Not Active | Not Active | Not Active | Not Active | Not Active | Not Active |  |  |  |  |  |  |
| O=C1O[C@H]([C@@H](O)CO)C(O)=C1O [ASCORBIC ACID] | Not Active | Not Active | Not Active | Not Active | Not Active | Not Active | Not Active | Not Active | Not Active | Not Active |  |  |  |  |  |  |
| COc1ccc(C2C(=O)c3ccccc3C2=O)cc1 [ANISINDIONE] | Not Active | Not Active | Not Active | Not Active | Not Active | Not Active | Not Active | Not Active | Not Active | Not Active |  |  |  |  |  |  |
| Brc1c(NC2=NCCN2)ccc2nccnc12 [BRIMONIDINE] | Not Active | Not Active |  | Not Active | Not Active | Not Active | Not Active | Not Active | Not Active | Not Active | 6.34 | 2.57 |  |  |  |  |
| COc1ccc(C(=O)N2CCCC2=O)cc1 | Not Active | Not Active | Not Active | Not Active | Not Active | Not Active | Not Active | Not Active | Not Active | Not Active |  |  |  |  |  |  |
| C[C@@H]1C[C@H]2[C@@H]3CCC4=CC(=O)C=C[C@]4(C)[C@@]3(F)[C@@H](O)C[C@]2(C)[C@@]1(O)C(=O)CO [DEXAMETHASONE] | Not Active | Not Active | Not Active | Not Active | Not Active | Not Active | Not Active | Not Active | Not Active | Not Active |  |  |  |  |  |  |
| O=C(c1ccccc1C(F)(F)F)N1CCC(Cc2ccccc2)CC1 | Not Active | Not Active | Not Active | Not Active | Not Active | Not Active | Not Active | Not Active | Not Active | Not Active |  |  |  |  |  |  |
| CCC1(C)CC(=O)NC1=O (stereo not given) [ETHOSUXIMIDE] | Not Active | Not Active | Not Active | Not Active | Not Active | Not Active | Not Active | Not Active | Not Active | Not Active |  |  |  |  |  |  |
| GRAMICIDIN | Not Active | Not Active | Not Active | Not Active | Not Active | Not Active | Not Active | Not Active | Not Active | Not Active |  |  | Not Active | Not Active | Not Active | Not Active |
| OC(CCCN1CCCCC1)(c1ccccc1)c1ccccc1 [DIPHENIDOL] | Not Active | Not Active | Not Active | Not Active | Not Active | Not Active | Not Active | Not Active | Not Active | Not Active |  |  |  |  |  |  |
| CCC(=O)O[C@]1(C(=O)CCl)[C@@H](C)C[C@H]2[C@@H]3CCC4=CC(=O)C=C[C@]4(C)[C@@]3(F)[C@@H](O)C[C@@]21C [CLOBETASOL PROPIONATE] | Not Active | Not Active | Not Active | Not Active | Not Active | Not Active | Not Active | Not Active | Not Active | Not Active |  |  |  |  |  |  |
| Cc1c(OCC(F)(F)F)ccnc1C[S+]([O-])c1nc2ccccc2[nH]1 (stereo not given) [LANSOPRAZOLE] | Not Active | Not Active | Not Active | Not Active | Not Active | Not Active | Not Active | Not Active | Not Active | Not Active |  |  |  |  |  |  |
